The results in this text go back to US20220031680A1, “Donecopride As Neuroprotective Agent In the Treatment of Neurodegenerative Diseases” (priority 2018, published 2022).

For the assay, the system named is dopaminergic TH-positive neurons injured with MPP+. Description: Survival and neurite network of TH neurons in primary mesencephalic culture injured with MPP+. The format is cell-based, rat. Particulars: MPP+ 4 μM 48 h; 1 h pre-incubation. How it is done: The aim of the present study was to investigate the neuroprotective effect of MR36014 and MR33583 (at 4 concentrations) on dopaminergic TH-positive neurons injured with MPP^+. The test compounds were pre-incubated for 1 hour before MPP^+ application (4 μM for 48 h). The neuroprotective effect (survival and neurite network) of test compounds was investigated. In addition, the effect on the cytoplasmic alpha-synuclein accumulation was studied.
Rat dopaminergic neurons were cultured as described by Callizot et al. (2019) PLoS One 14:e0215277 and Visanji et al. (2008) FASEB J. 22:2488-2497. Briefly, pregnant female rat (Wistar) of 15 days of gestation were killed using a deep anesthesia with CO2 chamber and a cervical dislocation. The midbrains obtained from 15-day-old rat embryos (Janvier, France) were dissected under a microscope. […]
Midbrains were dissociated by trypsinisation for 20 min at 37° C. […] Viable cells were counted in a Neubauer cytometer using the trypan blue exclusion test. […]
Briefly, on day 6 of culture, the medium was removed, and fresh medium was added, with or without test compounds and with or without MPP^+ for 48 hours diluted in control medium. 6 wells per condition were assessed. […]
Test compounds were tested in 96-well plate (n=6 culture wells per condition). […] The following conditions were assessed: […]

Take `COc1cc(N)c(F)cc1C(=O)CCC1CCN(CC2CCCCCC2)CC1` [MR36014]: the “concentrations protecting the neurite network of TH neurons” value is recorded as “all investigated doses”.
Turning to `COc1cc(N)c(F)cc1C(=O)CCC1CCN(CC2CCCC2)CC1` [MR33583], the “concentrations improving TH neuron survival” value came to 100 nM.
